Experimental findings from US20070254313A1, “Gnal Splice Variant and Uses Thereof” (AstraZeneca AB, priority 2003, published 2007) are described below.

SMILES strings stand for the structures.

This assay addresses T1, human adenosine A2a receptor (Homo sapiens, UniProt P29274).
T1 construct: β1 and γ2 baculoviruses from PerkinElmer Biosignal; host or cells: Sf9 insect cells infected with recombinant baculoviruses; membranes
The experiment in a line: Agonist-induced [35S]-GTPγS binding assay on A2a receptor, Sf9 membranes. The settings on record: Sf9 cells expressing adenosine A2a receptor, XLGolf, and β1γ2 dimer. In kind it is biochemical. In general terms: GTPγS is a poorly hydrolysed GTP analogue; its binding reports G protein activation.

T1 sequence (P29274 whole entry): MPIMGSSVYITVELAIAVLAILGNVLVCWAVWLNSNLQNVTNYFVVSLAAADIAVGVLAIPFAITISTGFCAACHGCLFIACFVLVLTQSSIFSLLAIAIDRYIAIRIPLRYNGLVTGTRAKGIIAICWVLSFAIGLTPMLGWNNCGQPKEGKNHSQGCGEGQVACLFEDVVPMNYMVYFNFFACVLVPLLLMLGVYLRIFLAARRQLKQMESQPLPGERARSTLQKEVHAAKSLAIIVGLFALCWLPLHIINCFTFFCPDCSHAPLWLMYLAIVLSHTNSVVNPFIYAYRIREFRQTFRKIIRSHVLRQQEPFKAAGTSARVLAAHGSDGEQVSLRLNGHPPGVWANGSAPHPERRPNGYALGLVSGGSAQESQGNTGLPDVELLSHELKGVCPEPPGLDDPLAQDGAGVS
Method: After infection for 48 hours, cells were harvested for membrane preparation. Cells were harvested by centrifugation at 500×g at 4° C. The cell pellets were washed twice with Dulbecco's phosphate-buffered saline (DPBS) at pH 7.4 and suspended in ice-cold 10 mM Tris-HCl with 5 mM EDTA (TE)(pH 7.4) containing a protease inhibitor cocktail (Roche Applied Science, Indianapolis, Ind.) and sonicated. Following centrifugation at 1000×g, membranes were collected from the supernatant by centrifugation at 20,000×g for 30 min at 4° C. The membrane fraction was stored at −80° C. in TE containing 5% glycerol.
Membranes from Sf9 cells expressing the ADORA2A, XLGolf, β1, and γ2 subunits were resuspended in the reaction buffer (20 mM HEPES, pH 7.4, 100 mM NaCl, 10 mM MgCl2, 1 mM EDTA, 1 mM DTT) including protease inhibitor. Agonist-induced [^35S]-GTPγS binding assay was performed for 90 min at room temperature in 96 well-microplates with a volume of 200 μl per well, and containing 5 μg of membranes, agonist at a concentration range of 10^−12 to 10^−4 M, 10 μM GDP, and 400 pM [^35S]-GTPγS. Non-specific binding was determined in the presence of 10 μM unlabeled GTPαS. Incubations were terminated by rapid filtration of the samples throught glass fiber filters (Whatman GF/C). […] Radioactivity was measured using a Packard Bioscience Top Count NXT Microplate Scintillation microplate reader. […]

`Nc1nc(Nc2ccccc2)nc2c1ncn2[C@@H]1O[C@H](CO)[C@@H](O)[C@H]1O` [CV1808]: the “potencies of ADA-resistant adenosine receptor ligands” value is on record as “comparable”.
